Earlier results in patent publication US20230364026A1, “[…] NANOPARTICLE FORMULATIONS OF CANNABINOIDS AND C[…] WITH REDUCED OSTWALD RIPENING FOR ORAL, INHALATION, NASAL AND […] DELIVERY” (Luminus Biosciences, Inc., priority 2020, published 2023).

Assays:
[1] = self-experiment, compared to THC
[2] = pH values ranging from 1.2 to 7.0
[3] = administered orally, human gastrointestinal tract

SMILES | duration of effects in humans [1] [h] | solubility in water [2] | oral absorption [3]
CCCCCn1cc(C(=O)c2cccc3ccccc23)c2ccccc21 [JWH-018] | 1 to 2 |  | 
CCCCCCC(C)(C)c1cc(O)c2c(c1)OC(C)(C)C1CCC(=O)CC21 (racemic) [Nabilone, (±)-trans-3-(1,1-dimethylheptyl)-6,6a,7,8,10,10a-hexahydro-1-hydroxy-6-6-dimethyl-9H-dibenzo[b,d] pyran-9-one] |  | less than 0.5 mg/L | completely absorbed
CCCCCCCC(C)(C)c1ccc([C@H]2CCC[C@@H](O)C2)c(O)c1 [CP 47,497-C8] | 5 to 6 |  | 
